# Data: US20110091587A1, “PHASE II DETOXIFICATION AND ANTIOXIDANT ACTIVITY” (JOSLIN DIABETES CENTER, INC., priority 2007, published 2011)
# System: GCS-1::GFP
# Assay: GCS-1::GFP reporter expression in the intestine of transgenic worms
# Type: in vivo, C. elegans
# Excerpt: A nucleic acid encoding the GCS-1 promoter (as described in An and Blackwell, 2003, Genes & Dev., 17, 1882-1893) was fused with a sequence encoding green fluorescent protein (GFP) to prepare a reporter construct (gcs-1::GFP) using standard molecular biology techniques. This fusion construct gene was transferred into C. elegans (An and Blackwell, 2003, Genes & Dev., 17, 1882-1893; Mello, et al., EMBO J. 1991. 10(12):3959-70), and the obtained transformed C. elegans were used in the experiment. Under normal, less oxidative stress conditions, the gcs-1::GFP construct is expressed in the pharynx area and ASI of C. elegans, where fluorescence emission of GFP can be measured.
# Experiments were conducted to study the influence of the various extracts prepared in Example 1 on expression of the GCS-1::GFP reporter construct (described in Example 2) in C. elegans, following the method according to An and Blackwell, 2003, Genes & Dev., 17, 1882-1893.
# Before each experiment, approximately 20 L4 stage worms carrying the GCS-1::GFP reporter construct transgene were picked to NGM plates (a type of agar media, see Brenner, Genetics, 1974 May; 77(1):71-94), containing OP50 bacteria (an E. coli strain, food for C. elegans), and were allowed to grow for 2 to 3 days. The worms were transferred together with a saline medium (M9) for treatment with the test materials to a microcentrifuge tube by flooding the NGM plate surface with the saline medium (M9). The microcentrifuge tube was then centrifuged, and a supernatant was removed. The same procedure was repeated again to wash the worms. This washing removed the bacteria which had been given as food.
# Once the worms were washed, they were added for incubation in the specified test materials at the specified concentrations for the following amounts of time. Initially, incubation time was 30 minutes, and was later extended to include 60, 90, and 120 minutes. After treatment for said given times, the worms were washed in M9 at least twice, transferred back to an NGM plate containing bacteria, and allowed to recover for about 30 minutes. The worms were then mounted on slides, and scored for GFP expression levels under a microscope. GFP expression levels in the intestines of each worm were evaluated based on three scores; high, medium, and low expressions. A high score was given for worms with GFP expression through out the intestine. GFP expression midway up the intestine was scored medium. A low score was given to worms with very little or no GFP expression in their intestine. […]
# [1] = comparison of GCS-1::GFP, Δ2 and Δ2mut3 worms
smiles,measurement,setting,value
C[S+]([O-])CCCCN=C=S (stereo not shown) [sulforaphane],regulation of GCS-1::GFP expression by SKN-1,[1],not partially regulated by SKN-1
same,site of GCS-1::GFP expression,[1],about half of GCS-1::GFP expression was seen in the pharynx
same,effect on GCS-1::GFP expression,"sulforaphane 1 mg/mL, after 30, 60 or 90 minutes of incubation",no effect was seen
same,incubation time at which effect was first seen,"sulforaphane 1 mg/mL, longer incubation",6 h
